Laboratory results: patent US12239629B2 (priority 2020, dated 2025)
≈ marks a conversion by molar mass, not a printed value. Counter-ions that a name gives are not always drawn. Like-named read-outs stand apart in the source and are kept apart here.

Tests used:
[1] = system: SARS-CoV2; experiment: In-vitro experiments, time of drug addition relative to infection; assay type: cell-based; conditions: added between 3 hours pre-infection and 3 hours after infection
Procedure: Less inhibition was detected when the drug was added after 12 hours post-infection (Our observation was consistent with the report by Agostini et al regarding GS-5734 (remdesivir) (Agostini M L, Andres E L, Sims A C, Graham R L, Sheahan T P, Lu X, Smith E C, Case J B, Feng J Y, Jordan R, Ray AS, Cihlar T, Siegel D, Mackman R L, Clarke M O, Baric R S, Denison M R. 2018. Coronavirus susceptibility to the antiviral remdesivir (GS-5734) is mediated by the viral polymerase and the proofreading exoribonuclease. mBio 9:e00221-18. https://doi.org/10.1128/mBio.00221-18.).
(§1) In carrying out the in vitro experiments, vero E6 cells (an African green monkey kidney cell line) were infected with SARS-CoV2 at a multiplicity of infection of 0.5 for 1 hour. The cells were washed with PBS and then incubated in OPTI-MEM (Invitrogen) medium with or without various concentrations of the following drug candidates: Artemether (from BiopharmaRx) Hydroxychloroquine (from Sigma Aldrich), Atazanavir (from Sigma Aldrich), and Efavirenz (from Sigma Aldrich), Fosamprenavir Calcium (from Sigma Aldrich), Saquinavir (from Sigma Aldrich) and Remdesivir (from AOBIOUS, INC., USA)

[2] = Peak Inhibitory Concentration (Threshold) after oral administration
Procedure: It is noted that the Peak Inhibitory Concentration (Threshold) of Artemether and Remdesivir were at 120 minutes after oral administration. The Peak Inhibitory Concentration (Threshold) of Lumefantrine was at 60 minutes after oral administration.

[3] = cited from earlier work
[4] = system: SARS-CoV2; experiment: Drug pretreatment of Vero E6 cells prior to SARS-CoV2 infection, indirect immunofluorescence; assay type: cell-based
Procedure: as §1
(§2) Immunofluorescence staining was performed with SARS-CoV2-specific hyperimmune mouse ascitic fluid (HMAF) followed by anti-mouse fluorescein-coupled antibody.
Experiments were carried out to determine the impact of artemether treatment on SARS-CoV2 infection. Permissive Vero E6 cells were pre-treated with various concentrations of artemether (0.1-50 μM) for 18-24 hours prior to virus infection. Cells were then infected with SARS-CoV2, and virus antigens were visualized by indirect immunofluorescence. For quantitative purposes, we counted the number of cells stained positive from three random locations on a slide. The average number of positively stained control cells was scored as 100% and was compared with the number of positive cells observed under various artemether concentrations. Pretreatment with 0.1, 1, 10, 20, 30, 40 and 50 μM artemether reduced infectivity by 4%, 12%, 32%, 45%, 63%, 92% and 100% respectively. Reproducible results were obtained from three independent experiments.

[5] = system: SARS-CoV2; experiment: Drug added to Vero E6 cells immediately after SARS-CoV2 adsorption, indirect immunofluorescence after 24 hours; assay type: cell-based; conditions: for inhibition: added after the initiation of infection
Procedure: as §1, §2
The antiviral properties of artemether on SARS-CoV2 after the initiation of infection were studied. Vero E6 cells were infected with the virus and fresh medium supplemented with various concentrations of artemether was added immediately after virus adsorption. Infected cells were incubated for an additional 24 hours, after which the presence of virus antigens was analyzed by indirect immunofluorescence analysis. When artemether was added after the initiation of infection, there was a dramatic dose dependent decrease in the number of virus antigen-positive cells. […] A half-maximal inhibitory effect was estimated to occur at 16.5±1.0 μM artemether. […] (FIG. 2).

[6] = Dissolution test of Artemether/Lumefantrine-Remdesivir soft gel capsule; assay type: physicochemical; conditions: 0.1 N. HCl with 3% Benzalkonium Chloride
Source text: The soft gel capsule of Artemether and Lumefantrine is comprised: Artemether 4 to 5% w/w, Lumefantrine 20-24% w/w, Remdesivir 18-20%, non-aqueous vehicle 15-20% w/w, preservative less than 1% w/w, viscosity imparting agent 15-20% w/w, suspending agent 1 to 5% w/w and emulsifying agent 1 to 3% w/w and a process to manufacture the said preparation comprising of the following steps as given in the above Patent. • (a) Preservatives and Solid Suspending Agents were milled and sifted. • (b) Non-aqueous vehicle, viscosity imparting agent and liquid suspending agents were filtered to remove the foreign particles • (c) Additional steps for mixing preservatives and suspending agents: • (i) Preservatives were dissolved in non-aqueous vehicle; • (ii) Emulsifying agents were warmed and/or melted and added into mixture in (i) above; • (iii) Viscosity imparting agent is added to mixture of (ii) above and the resultant mixture is stirred. • (iv) Suspending agent is added and mixed with the mixture in (iii) above; and • (v) The mixture of (a) above and (c) (iv) above was homogenized. • (d) The mixture in (v) above was the encapsulated in soft gelatin.
Drug dissolution testing is routinely used to provide critical in vitro drug release information for both quality control purposes to predict in vivo drug release profiles.
The media for dissolution test was 0.1 N. HCl with 3% Benzalkonium Chloride.

[7] = system: severe COVID-19; conditions: cited from earlier work
[8] = system: COVID-19; conditions: preliminary results, cited from earlier work
[9] = pretreatment 18-24 hours prior to virus infection, 0.1 μM
[10] = pretreatment 18-24 hours prior to virus infection, 1 μM
[11] = pretreatment 18-24 hours prior to virus infection, 10 μM
[12] = pretreatment 18-24 hours prior to virus infection, 20 μM
[13] = pretreatment prior to virus infection, 5 μM
[14] = pretreatment prior to virus infection, 15 μM
[15] = pretreatment prior to virus infection, 25 μM
[16] = Severe acute respiratory syndrome coronavirus 2, Vero C1008, drug added after the initiation of infection, Vero E6 cells, read-out: concentration that reduced the infection by 50%
[17] = Severe acute respiratory syndrome coronavirus 2, Vero C1008, drug added immediately after virus adsorption, Vero E6 cells, estimated, read-out: half-maximal inhibitory effect
[18] = Severe acute respiratory syndrome coronavirus 2, Vero C1008, read-out: half-maximal inhibitory effect, drug added immediately after virus adsorption, Vero E6 cells, estimated
[19] = pretreatment 18-24 hours prior to virus infection, 30 μM
[20] = pretreatment 18-24 hours prior to virus infection, 40 μM
[21] = pretreatment 18-24 hours prior to virus infection, 50 μM

| SMILES | reduced infectivity [4, 9] [%] | reduced infectivity [4, 10] [%] | reduced infectivity [4, 11] [%] | reduced infectivity [4, 12] [%] | IC50 [5, 16] [µM] | IC50 [5, 17] [µM] | IC50 [5, 18] [µM] | reduced infectivity [4, 19] [%] | reduced infectivity [4, 20] [%] | reduced infectivity [4, 21] [%] | further results |
| --- | --- | --- | --- | --- | --- | --- | --- | --- | --- | --- | --- |
| COC(=O)NC(C(=O)NN(Cc1ccc(-c2ccccn2)cc1)C[C@H](O)[C@H](Cc1ccccc1)NC(=O)[C@@H](NC(=O)OC)C(C)(C)C)C(C)(C)C (stereo partly drawn) [Atazanavir, methyl N-[(1S)-1-{N′-[(2S,3S)-2-hydroxy-3-[(2S)-2-[(methoxycarbonyl)amino]-3,3-dimethylbutanamido]-4-phenylbutyl]-N′-{[4-(pyridin-yl)phenyl]methyl} hydrazinecarbonyl}-2.2-dimethylpropyl]carbamate] | – | – | – | – | – | – | – | – | – | – | inhibition by time of addition [1]: maximal inhibition |
| CCCCN(CCCC)CC(O)c1cc(Cl)cc2c1-c1ccc(Cl)cc1/C2=C/c1ccc(Cl)cc1 (centres unmarked) [Lumefantrine] | – | – | – | – | – | – | – | – | – | – | time of Peak Inhibitory Concentration (Threshold) [2]: 60 min; solubility in water (words) [3]: insoluble |
| CCC(CC)COC(=O)[C@H](C)N[P@](=O)(OC[C@H]1O[C@@](C#N)(c2ccc3c(N)ncnn23)[C@H](O)[C@@H]1O)Oc1ccccc1 [Remdesivir, 2-ethylbutyl (2S)-2-[[[(2R,3S,4R,5R)-5-(4-aminopyrrolo[2,1-f][1,2,4]triazin-7-yl)-5-cyano-3,4-dihydroxyoxolan-2-yl]methoxy-phenoxyphosphoryl]amino]propanoate] | 7 | 21 | 63 | 96 | ~2.4 | 2.4 ± 1 | – | – | – | – | reduced infectivity [4, 13]: 42%; reduced infectivity [4, 14]: 84%; reduced infectivity [4, 15]: 100%; inhibition ([5]; 5-50 μM concentrations): 68%-96%; % Cumulative Drug Release ([6]; 60 minute time frame): 91.7%; % of Drug Release in a Dissolution Test ([6]; sample time 30 minute): 52.6%; % of Drug Release in a Dissolution Test ([6]; sample time 60 minute): 73.4%; % of Drug Release in a Dissolution Test ([6]; sample time 90 minute): 85.8%; % of Drug Release in a Dissolution Test ([6]; sample time 120 minute): 92.6%; time of Peak Inhibitory Concentration (Threshold) [2]: 120 min; stopped early because of adverse events ([7]; adult patients admitted to hospital for severe COVID-19, 237 enrolled): 18 patients; clinical benefits ([7]; adult patients admitted to hospital for severe COVID-19): not associated with statistically significant clinical benefits; stopped early because of adverse events ([7]; share of patients, adult patients with severe COVID-19): 12%; faster time to recovery than placebo ([8]; 1063 patients, p<0.001): 31%; median time to recovery ([8]; 1063 patients): 11 days; mortality rate ([8]; p=0.059 vs placebo): 8.0%; solubility in water [3]: 330 µg/mL (≈ 548 µM); solubility in water (words) [3]: sparingly soluble |
| COC(=O)N[C@H](C(=O)N[C@@H](Cc1ccccc1)[C@@H](O)CN(Cc1ccc(-c2ccccn2)cc1)NC(=O)[C@@H](NC(=O)OC)C(C)(C)C)C(C)(C)C [atazanavir sulfate] | 5 | 15 | 46 | 92 | ~11 | 11.5 ± 1 | – | – | – | – | reduced infectivity [4, 13]: 28%; reduced infectivity [4, 14]: 78%; reduced infectivity [4, 15]: 100%; inhibition ([5]; 40-100 μM concentrations): 86%-96% |
| C[C@H]1O[C@@H](O[C@H]2[C@@H](O)C[C@H](O[C@H]3[C@@H](O)C[C@H](O[C@H]4CC[C@@]5(C)[C@H](CC[C@@H]6[C@@H]5C[C@@H](O)[C@]5(C)[C@@H](C7=CC(=O)OC7)CC[C@]65O)C4)O[C@@H]3C)O[C@@H]2C)C[C@H](O)[C@@H]1O [digoxin, 3-[(3S,5R,8R,9S, 10S, 12R, 13S, 14S, 17R)-3-[(2R,4S,5S,6R)-5-[(2S,4S,5S,6R)-5-[(2S,4S,5S,6R)-4,5-dihydroxy-6-methyloxan-2-yl]oxy-4-hydroxy-6-methyloxan-2-yl]oxy-4-hydroxy-6-methyloxan-2-yl]oxy-12,14-dihydroxy-10, 13-dimethyl-1,2,3,4,5,6,7,8,9, 11, 12, 15, 16, 17-tetradecahydrocyclopenta[a]phenanthren-17-yl]-2H-furan-5-one] | – | – | – | – | ~0.17 | – | 0.17 ± 0.05 | – | – | – | inhibition ([5]; 0.20-0.50 μM concentrations): 73%-97% |
| O=C1Nc2ccc(Cl)cc2[C@@](C#CC2CC2)(C(F)(F)F)O1 [efavirenz, Efavirenz] | 3 | 9 | 25 | 48 | – | – | 51 ± 1 | 73 | 89 | 100 | inhibition ([5]; 80-200 μM concentrations): 73%-96%; IC50 ([5]; Severe acute respiratory syndrome coronavirus 2, Vero C1008, read-out: concentration that reduced the infection by 50%, drug added after the initiation of infection, Vero E6 cells): ~55 µM |
| CC(C)CN(C[C@H](OP(=O)(O)O)[C@H](Cc1ccccc1)NC(=O)O[C@H]1CCOC1)S(=O)(=O)c1ccc(N)cc1 [fosamprenavir calcium, Fosamprenavir Calcium] | 3 | 10 | 28 | 55 | ~58 | 58 ± 1 | – | 73 | 91 | 100 | inhibition ([5]; 80-200 μM concentrations): 75%-96%; IC50 ([5]; read-out: concentration that reduced the infection by 50%, drug added after the initiation of infection, Vero E6 cells): ~95 µM |
| CCN(CCO)CCCC(C)Nc1ccnc2cc(Cl)ccc12 (centres unmarked) [hydroxychloroquine sulfate] | 6 | 18 | 47 | 63 | – | 7.5 ± 1 | – | 81 | 92 | 100 | inhibition ([5]; 40-100 μM concentrations): 75-96%; reduced the infection ([5]; approximately 10 μM added immediately after virus adsorption, 24 hours): 63% |
| CC(C)(C)NC(=O)[C@@H]1C[C@@H]2CCCC[C@@H]2CN1C[C@@H](O)[C@H](Cc1ccccc1)NC(=O)[C@H](CC(N)=O)NC(=O)c1ccc2ccccc2n1 [saquinavir, Saquinavir] | – | 5 | 16 | 35 | – | – | 96 ± 1 | – | 47 | – | reduced infectivity ([4]; pretreatment 18-24 hours prior to virus infection, 60 μM): 78%; reduced infectivity ([4]; pretreatment 18-24 hours prior to virus infection, 80 μM): 85%; reduced infectivity ([4]; pretreatment 18-24 hours prior to virus infection, 100 μM): 100%; inhibition ([5]; 120-240 μM concentrations): 63%-96% |
